Results taken from patent publication US7993855B2, “Use of additives to lower the rate of a binding reaction” (Aokin AG, priority 2006, dated 2011).
Structures can show the parent of a compound that is named as a salt.

Tests used:
anti-thyroxine [1] = test: Fluorescence polarization kinetic assay, F-thyroxine/anti-thyroxine system; assay type: binding; details: PBS with 4.75% 2-propanol, BSA 0.1 μM, Anti-Thyroxine 1:300
anti-thyroxine [2] = test: as above; assay type: binding; details: for Rate of the antibody reaction with increasing concentrations of additive: PBS with 5% 2-propanol, BSA 0.1 μM, Fluorescein-Thyroxine 1 nM, Anti-Thyroxine 1:300
Procedure: An initial stock solution of anti-thyroxine sera was prepared. In particular, 1 ml of polyclonal anti-thyroxine sera containing 10 mg/ml IgG (Sigma) was diluted 1:5 in PBS buffer, pH 7.5. The final concentration of IgG in the stock solution was about 2 mg/ml.
An initial stock solution of fluorescein-labeled analyte (F-thyroxine) was prepared. […] First, 5 mg (4×10^−6 moles) of F-thyroxine was diluted to 10 ml in PBS to get a 4.1×10^−4 M solution of F-thyroxine. This solution was then further diluted 100-fold in PBS. The final concentration of F-thyroxine in the stock solution was about 4.1×10^−6 M.
All steps are performed at ambient temperature. The total final reaction volume after all additions is 3030 μl. • 1. Add 20 μl or 0 μl (control) anti-sera stock solution to about 2980 μl of Buffer 1. • 2. Pipette the diluted anti-sera solution prepared in step 1 up and down from 1 to 10 seconds to thoroughly mix. • 3. Add between 0 and 20 μl thyroxine stock solution (e.g., 0, 0.5, 2.0, 5.0 and 20 μl) to the mixed anti-sera from step 2. • 4. Pipette the mixture formed in step 3 up and down for 1 to 10 seconds and then incubate for 30 to 300 seconds. • 5. Add 10 μl of the Fluorescein-labeled thyroxine stock solution to the incubated mixture from step 4. • 6. Pipette the mixture formed in step 5 up and down for 1 to 10 seconds and begin measuring polarization (P), Polarized Fluorescence Intensity Difference (V−H) or quenching (V+H total intensity) versus time for between 10 and 7200 seconds after end of mixing in a direct readout polarometer or between 0.1 and 7200 seconds after end of mixing with a stopped-flow polarometer. • 7. Determine the rate of reaction (initial rates) and plot versus amount of thyroxine stock solution added in step 3 to produce a standard curve. • 8. Against a standard curve, an unknown amount of thyroxine can be measured by comparison of initial rate measurement (speed of reaction) of unknown with the standard curve. […]

anti-thyroxine [3] = test: Fluorescence polarization kinetic assay, rhodamine-labeled thyroxine (ROX-T4)/anti-thyroxine system; assay type: binding; details: Rox-Thyroxine 1.5 nM, Anti-Thyroxine 1:300, PBS with 10% 2-propanol, serum 1:500
Procedure: The protocol used is described below. […] Use clean glassware, washed with isopropanol. • 2. Make a 0.5 M solution of sodium benzoate. • 3. […] This will be named BUFFER. • 4. […] The absorbance spectrum is measured using a UV-VIS spectrophotometer, 400 nm to 800 nm. This spectrum is used to define the absorbance of the background as zero and to control that it is actually zero. • 6. […] Measure the absorbance UV-VIS, 400 nm to 800 nm. […] Using a rotating polarometer with a 75 watt Xenon short-arc lamp. The rotating polarizer has three channels: Polarization (P), Total Intensity (V+H), and V−H. • 8. […] Measure P, V+H and V−H after short mixing and 30 second equilibration. […] Add 10 μl. Antibody solution (anti-thyroxine in PBS, dilution unknown, probably 5 mg in 1000 μl PBS and further diluted 1:10 in PBS). New volume is 3017 μl. Measure P, V+H and V−H after short mixing.

human sera = test: Non-specific binding of F-thyroxine in presence of human sera; details: Buffer 2 (1.0 M sodium benzoate), 50 μl human sera, V−H over 10-600 s
Procedure: With reference to FIG. 2, experiments were performed to determine the effects of an additive on specific and non-specific binding. The additive used in the present example was sodium benzoate. The materials described in Example 1 and the measurement methodology described in Example 2 were used. In particular, 50 μl of human sera was added to 3000 μl of Buffer 2 or PBS at pH 7.5 (no additive control) and thoroughly mixed by pipetting for 1 to 10 seconds. To this was added 0 μl of unlabeled thyroxine and 0 μl, 20 μl or 50 μl of anti-sera stock solution. The mixture was thoroughly mixed by pipetting for 1 to 10 seconds. Then, 5 μl of the fluorescein-labeled thyroxine stock solution was added. This was followed by mixing for 1 to 10 seconds by pipetting. Then, d(V−H)/dt measurements were made versus time for between 10 and 600 seconds. This protocol was followed for Experiments 6-9 in Table 2.

serum components = test: Initial non-specific binding between F-thyroxine and serum components (P at t=0); details: experiments 6-3 through 6-7: serum, increasing sodium benzoate; PBS with 10% 2-propanol
Procedure: The buffer and stock solutions described in Example 1 and the measurement methodology described in Example 2 were used.
• Fluorescein-Thyroxine (1 nM) • Anti-Thyroxine (1:300 dilution) • PBS with 10% 2-propanol • Benzoate in different concentrations • At t=0 s antibody was pipetted into the cuvette. • A 3 ml cuvette was used, the total volume in the cuvette was 2 ml. A small magnetic stirrer was used for mixing
In example 6, the reactions between F-Thyroxine and Anti-Thyroxine, which were carried out in the presence of serum under different reaction conditions, are compared (FIG. 4). There are seven different amounts of sodium benzoate, between 0 and 1.0 Molar in the cuvette. The reaction was performed in a phosphate buffered saline buffer containing 10% 2-propanol. The table in FIG. 4 lists the two important parameters.

Structure (SMILES): [Cl-].[Na+] [sodium chloride]
- Rate of the antibody reaction with increasing concentrations of additive (anti-thyroxine [1]; Fluorescein-Thyroxine 1.5 nM): not substantially slowed

Structure (SMILES): Cc1ccc(S(=O)(=O)O)cc1.[Na] [sodium p-tolulene sulfonate, sodium p-toluene sulfonate]
- Rate of the antibody reaction with increasing concentrations of additive (anti-thyroxine [2]): substantially slowed

Structure (SMILES): O=C1CCC(=O)N1O [N-hydroxysuccinimide]
- Rate of the antibody reaction with increasing concentrations of additive (anti-thyroxine [1]; Fluorescein-Thyroxine 1.5 nM): substantially slowed

Structure (SMILES): N=C(N)N [guanidine hydrochloride]
- Rate of the antibody reaction with increasing concentrations of additive (anti-thyroxine [2]): substantially slowed

Structure (SMILES): O=C([O-])CCl.[Na+] [sodium chloroacetate]
- Rate of the antibody reaction with increasing concentrations of additive (anti-thyroxine [1]; Fluorescein-Thyroxine 1 nM): substantially slowed

Structure (SMILES): O=C([O-])c1ccccc1.[Na+] [sodium benzoate]
- Rate of the reaction with increasing concentrations of additive (anti-thyroxine [3]): substantially slowed
- Effect of additive on non-specific binding (human sera): inhibits non-specific binding
- Reaction between F-thyroxine and its specific antibody capable of being followed (kinetic curve) (anti-thyroxine [2]; Buffer 1 (0.5 M sodium benzoate in PBS, pH 7.5) versus PBS): only capable of being followed when the reaction was performed in the presence of an additive
- Effect of additive on specific binding (anti-thyroxine [2]; Buffer 2 (1.0 M sodium benzoate), 50 μl human sera, 0/20/50 μl antiserum, V−H over 10-600 s): does not inhibit specific binding
- Rate of the antibody reaction with increasing concentrations of additive (anti-thyroxine [2]): substantially slowed
- Reaction rate relative to its value from zero additive agent (anti-thyroxine [2]; experiments 6-3 through 6-7: serum, increasing sodium benzoate, PBS with 10% 2-propanol): about 30%
- Polarization value before addition of antibody (t=0) (serum components): 100 mP

Structure (SMILES): O=C([O-])c1ccccc1.[K+] [potassium benzoate]
- Rate of the antibody reaction with increasing concentrations of additive (anti-thyroxine [1]; Fluorescein-Thyroxine 1 nM): substantially slowed

Structure (SMILES): O=C([O-])C(Cl)Cl.[Na+] [sodium dichloroacetate]
- Rate of the antibody reaction with increasing concentrations of additive (anti-thyroxine [1]; Fluorescein-Thyroxine 1 nM): substantially slowed
